ChEMBL document CHEMBL1201862, “PubChem BioAssay data set” (2004)
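Protocol summary: plate cells (96-well), add compound at 5 concentrations, incubate 48 h, interpolate endpoints linearly. GI50: concentration for 50% inhibition of growth.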 The source made the active and inactive calls. Cut-off read from the data, not from the text of the source: active = GI50 up to about 1.1 µM and inactive = higher.

Experiments:
Test in all cases: growth of human tumour cells (NCI), 48 h
UACC-62 = tested on: UACC-62
SK-MEL-5 = tested on: SK-MEL-5
DU-145 = tested on: DU-145
PC-3 = tested on: PC-3
BT-549 = tested on: BT-549
UO-31 = tested on: UO-31
RXF 393 = tested on: RXF 393
HCT-15 = tested on: HCT-15
HOP-92 = tested on: HOP-92
SK-OV-3 = tested on: SK-OV-3
SR = tested on: SR
M14 = tested on: M14
NCI-H460 = tested on: NCI-H460
SF-295 = tested on: SF-295
KM12 = tested on: KM12
K562 = tested on: K562
OVCAR-3 = tested on: OVCAR-3
COLO 205 = tested on: COLO 205
MDA-MB-435 = tested on: MDA-MB-435
HT-29 = tested on: HT-29
EKVX = tested on: EKVX
A549 = tested on: A549
HL-60 = tested on: HL-60
SNB-19 = tested on: SNB-19
SW-620 = tested on: SW-620
HCT-116 = tested on: HCT-116
SNB-75 = tested on: SNB-75
SK-MEL-2 = tested on: SK-MEL-2
UACC-257 = tested on: UACC-257
NCI-H522 = tested on: NCI-H522
T47D = tested on: T47D
TK-10 = tested on: TK-10
CCRF-CEM = tested on: CCRF-CEM
OVCAR-4 = tested on: OVCAR-4
OVCAR-5 = tested on: OVCAR-5
U-251 = tested on: U-251
ACHN = tested on: ACHN
MCF7 = tested on: MCF7
MOLT-4 = tested on: MOLT-4
NCI/ADR-RES = tested on: NCI/ADR-RES
IGROV-1 = tested on: IGROV-1
NCI-H23 = tested on: NCI-H23
SF-539 = tested on: SF-539
SN12C = tested on: SN12C
SF-268 = tested on: SF-268
MDA-N = tested on: MDA-N
Hs-578T = tested on: Hs-578T
CAKI-1 = tested on: CAKI-1
LOX IMVI = tested on: LOX IMVI
MDA-MB-231 = tested on: MDA-MB-231
OVCAR-8 = tested on: OVCAR-8
SK-MEL-28 = tested on: SK-MEL-28
RPMI-8226 = tested on: RPMI-8226
HCC 2998 = tested on: HCC 2998
HOP-62 = tested on: HOP-62
A498 = tested on: A498
NCI-H226 = tested on: NCI-H226
Malme-3M = tested on: Malme-3M
786-0 = tested on: 786-0

For `CCOC(=O)C1=NN(c2ccc(C)cc2)C2=CC(C)=NN(C)C(=S)N21`, the GI50 (UACC-62) was 31.9 µM (inactive), the GI50 (SK-MEL-5) was > 100 µM (inactive) and the GI50 (DU-145) was > 100 µM (inactive). For the same molecule, the GI50 (PC-3) was > 100 µM (inactive), the GI50 (BT-549) was > 100 µM (inactive) and the GI50 (UO-31) was > 100 µM (inactive). For the same molecule, the GI50 (RXF 393) was 12.6 µM (inactive), the GI50 (HCT-15) was greater than 100 µM and the GI50 (HOP-92) was > 10 µM (inactive). For the same molecule, the GI50 (SK-OV-3) was 70.3 µM (inactive), the GI50 (SR) was > 100 µM (inactive) and the GI50 (M14) was > 100 µM (inactive). The GI50 (NCI-H460) was > 100 µM (inactive), the GI50 (SF-295) was > 100 µM (inactive) and the GI50 (KM12) was > 100 µM (inactive). The GI50 (K562) was > 100 µM (inactive), the GI50 (OVCAR-3) was 60 µM (inactive) and the GI50 (COLO 205) was > 100 µM (inactive). The GI50 (MDA-MB-435) was > 100 µM (inactive), the GI50 (HT-29) was > 100 µM (inactive) and the GI50 (EKVX) was 81.1 µM (inactive). For the same molecule, the GI50 (A549) was 70.6 µM (inactive), the GI50 (HL-60) was > 100 µM (inactive) and the GI50 (SNB-19) was > 100 µM (inactive). The GI50 (SW-620) was 54.2 µM (inactive), the GI50 (HCT-116) was 31.1 µM (inactive) and the GI50 (SNB-75) was 23.1 µM (inactive). For the same molecule, the GI50 (SK-MEL-2) was > 100 µM (inactive), the GI50 (UACC-257) was > 100 µM (inactive) and the GI50 (NCI-H522) was 12.2 µM (inactive). The GI50 (T47D) was 26.4 µM (inactive), the GI50 (TK-10) was 36.1 µM (inactive) and the GI50 (CCRF-CEM) was > 100 µM (inactive). For the same molecule, the GI50 (OVCAR-4) was > 100 µM (inactive), the GI50 (OVCAR-5) was 88.5 µM (inactive) and the GI50 (U-251) was 38.5 µM (inactive). For the same molecule, the GI50 (ACHN) was 43.5 µM (inactive), the GI50 (MCF7) was > 10 µM (inactive) and the GI50 (MOLT-4) was > 100 µM (inactive). For the same molecule, the GI50 (NCI/ADR-RES) was > 100 µM (inactive), the GI50 (IGROV-1) was > 100 µM (inactive) and the GI50 (NCI-H23) was 30.1 µM (inactive). For the same molecule, the GI50 (SF-539) was 64 µM (inactive), the GI50 (SN12C) was > 100 µM (inactive) and the GI50 (SF-268) was 85.5 µM (inactive). For the same molecule, the GI50 (MDA-N) was > 100 µM (inactive), the GI50 (Hs-578T) was 48.5 µM (inactive) and the GI50 (CAKI-1) was 24.4 µM (inactive). The GI50 (LOX IMVI) was 26.9 µM (inactive), the GI50 (MDA-MB-231) was 82.4 µM (inactive) and the GI50 (OVCAR-8) was 42.9 µM (inactive). For the same molecule, the GI50 (SK-MEL-28) was > 100 µM (inactive), the GI50 (RPMI-8226) was > 100 µM (inactive) and the GI50 (HCC 2998) was > 100 µM (inactive).

With `Cc1cc(N(CCC#N)CCC#N)ccc1C(/N=N/c1ccccc1)=N\NC(=O)c1ccccc1` the GI50 (HOP-62) was 55.8 µM (inactive), the GI50 (UACC-62) was 2.77 µM (inactive) and the GI50 (SK-MEL-5) was 18.7 µM (inactive). For the same molecule, the GI50 (DU-145) was 21.7 µM (inactive), the GI50 (PC-3) was 16.9 µM (inactive) and the GI50 (A498) was 24.6 µM (inactive). For the same molecule, the GI50 (BT-549) was 24 µM (inactive), the GI50 (UO-31) was 17.9 µM (inactive) and the GI50 (RXF 393) was 58.1 µM (inactive). The GI50 (NCI-H226) was 43.4 µM (inactive), the GI50 (HCT-15) was 18.3 µM and the GI50 (SK-OV-3) was 53.5 µM (inactive). The GI50 (SR) was 6.81 µM (inactive), the GI50 (M14) was 69 µM (inactive) and the GI50 (NCI-H460) was 29.3 µM (inactive). The GI50 (SF-295) was 11.6 µM (inactive), the GI50 (KM12) was 18.1 µM (inactive) and the GI50 (K562) was 9.84 µM (inactive). For the same molecule, the GI50 (OVCAR-3) was 30.3 µM (inactive), the GI50 (COLO 205) was 20.4 µM (inactive) and the GI50 (MDA-MB-435) was 8.04 µM (inactive). For the same molecule, the GI50 (HT-29) was 16.8 µM (inactive), the GI50 (EKVX) was 39.4 µM (inactive) and the GI50 (A549) was 38.8 µM (inactive). For the same molecule, the GI50 (HL-60) was 35.7 µM (inactive), the GI50 (SNB-19) was 40.4 µM (inactive) and the GI50 (HCT-116) was 20.6 µM (inactive). For the same molecule, the GI50 (SNB-75) was 48.6 µM (inactive), the GI50 (SK-MEL-2) was 77.1 µM (inactive) and the GI50 (UACC-257) was 38.5 µM (inactive). The GI50 (NCI-H522) was 16.3 µM (inactive), the GI50 (T47D) was 5.2 µM (inactive) and the GI50 (TK-10) was 7.66 µM (inactive). For the same molecule, the GI50 (CCRF-CEM) was 18.6 µM (inactive), the GI50 (OVCAR-4) was 29.2 µM (inactive) and the GI50 (OVCAR-5) was 86.9 µM (inactive). For the same molecule, the GI50 (Malme-3M) was 34 µM (inactive), the GI50 (U-251) was 35.7 µM (inactive) and the GI50 (ACHN) was 16.4 µM (inactive). For the same molecule, the GI50 (MCF7) was 18.6 µM (inactive), the GI50 (MOLT-4) was 19.5 µM (inactive) and the GI50 (NCI/ADR-RES) was 20.2 µM (inactive). For the same molecule, the GI50 (IGROV-1) was 28.2 µM (inactive), the GI50 (NCI-H23) was 30.5 µM (inactive) and the GI50 (SF-539) was 17.4 µM (inactive). For the same molecule, the GI50 (SN12C) was 43.9 µM (inactive), the GI50 (SF-268) was 42.8 µM (inactive) and the GI50 (MDA-N) was 7.96 µM (inactive). For the same molecule, the GI50 (Hs-578T) was 31.5 µM (inactive), the GI50 (CAKI-1) was 28.2 µM (inactive) and the GI50 (MDA-MB-231) was 57 µM (inactive). The GI50 (786-0) was 25.5 µM (inactive), the GI50 (OVCAR-8) was 24.3 µM (inactive) and the GI50 (RPMI-8226) was 42.7 µM (inactive). The GI50 (HCC 2998) was 22.9 µM (inactive).
